Test results from US9463198B2, “Compositions and methods for reducing or preventing metastasis” (Infectious Disease Research Institute, priority 2013, dated 2016).

Columns and labels:
MADB 106 tumor cells [1] = assay: MADB 106 lung tumor retention (LTR) in F344 rats; format: in vivo, F344 rat; conditions: for MADB 106 LTR, GLA vs PBS (time course): with epinephrine
Experimental: GLA (IDRI, Seattle, Wash.), dissolved in stable emulsion (SE) (2000 μg/ml) was diluted in PBS for a final concentration of 3 μg/ml-200 μg/ml (depending on the relevant experiment). One-hundred μl from the chosen concentration were injected subcutaneously (s.c.) to each animal (0.3 μg-20 μg/animal), immediately, 4 h, 12 h, 24 h, 48 h, or 96 h prior to MADB106 tumor cell inoculation (depending on the relevant experiment).
MADB 106 tumor cells metastasize only to the lungs, and lung tumor retention (LTR), which is highly indicative of the number of metastases that would have developed weeks later, is dependent upon NK cells in this model. Additionally, because the metastatic process of MADB106 is sensitive to NK activity predominantly during the first 24 h following inoculation, LTR is more reflective of in vivo NK activity levels than the number of actual metastases. The MADB 106 cell line was maintained in monolayer cultures in complete media (RPMI-1640 media supplemented with 10% heat-inactivated fetal calf serum (FCS), 50 μg/mL of gentamicin, 2 mM of 1-glutamine, 0.1 mM of non-essential amino-acids, and 1 mM of sodium pyruvate, (Biological Industries, Kibbutz Biet Haemek, Israel) in 100% humidity, 5% CO2 at 37° C. Cells were removed from the culture flask with trypsin solution (0.25% in PBS), and were washed with complete media. This cell line was used for both in vivo assessment of lung tumor retention and in vitro examination of NK cytotoxicity.
Tumor cell DNA radiolabeling for assessment of LTR was accomplished by adding 0.5 μCi/ml of ^125Iododeoxyuridine (^125IDUR, Danyel Biotech, Rehovot, Israel) to the cell culture for 24 h. For tumor cell injection, rats were lightly anesthetized with isoflurane, and 4×10^5/kg MADB106 tumor cells in 2 ml/kg PBS containing 0.1% bovine serum albumin (BSA) were injected into their tail vein. Some of the experiments also employed an additional 0.5 ml s.c. injection of epinephrine (1.8 mg/kg in females and 0.6 mg/kg in males) dissolved in a slow-release emulsion (4 parts PBS, 3 parts mineral oil (Sigma, Rehovot, Israel), and 1 part mannide-monooleate (a non-specific surface active emulsifier, Sigma, Rehovot, Israel)), for the amplification of MADB 106 retention in the lungs, allowing better group distinction. For assessment of LTR, animals were sacrificed with CO2, their lungs were removed 24 h after inoculation with ^125IDUR-labeled tumor cells, and placed in a γ-counter to assess percent radioactivity retained in this organ. LTR was calculated using the following formula: (radioactivity count of lung−background radioactivity)×100/(radioactivity count of the total injected cell suspension−background radioactivity).
Seventy-five three months old F344 male rats were randomly divided into one of 7 experimental groups administered with PBS, SE, or GLA in a dose/animal of 0.3 μg, 0.7 μg, 2.5 μg, 10 μg, and 20 μg. Each animal was injected s.c. with 100 μl of drug according to its group assignment, and, 24 h later, MADB 106 cells were inoculated (as detailed in section 4 above). Each of these 7 groups was further sub-divided into two separate groups—one that was injected with epinephrine during tumor inoculation, and the second that was injected with vehicle. Twenty-four hours later, animals were sacrificed and lungs were extracted for LTR assessment (as detailed in section 4).
In the first experiment, 75 six-month old F344 male rats were randomly divided into one of 5 injection time points preceding tumor inoculation—0 h, 4 h, 12 h, 24 h, and 48 h. Each group was further sub-divided into one of three experimental drug groups—PBS, SE, and 2 μg GLA. Each animal was injected s.c. with 100 μl according to its relevant drug group, in its designated time point. At time 0 h, MADB106 cells were injected (as detailed in section 4), along with epinephrine. […]

MADB 106 tumor cells [2] = assay: Three week study of MADB106 metastases development in the lungs; format: in vivo, F344 rat; conditions: male and female rats, 2 μg GLA s.c. 24 h before inoculation, counted three weeks later, GLA reducing the number
Experimental: Eighty-six six-month old F344 rats (44 females) were divided into three experimental groups (2 μg GLA, SE, and PBS). Each animal was injected s.c. with 100 μl according to its group assignment. Twenty-four hrs later, animals were lightly anesthetized with isoflurane and 10^5 MADB 106 tumor cells (approximately 4×10^5/kg) were injected into their tail vein in 0.5 ml of PBS (supplemented with 0.1% BSA). Three weeks later, rats were killed, and their lungs removed and placed for 24 h in Bouin's solution (72% saturated picric acid solution, 23% formaldehyde (37% solution) and 5% glacial acetic acid). After being washed in ethanol, visible surface metastases were counted by a researcher uninformed of the origin of each lung.

Question: `CNC[C@H](O)c1ccc(O)c(O)c1` [epinephrine, reference compound] was tested. Which “effect of epinephrine on LTR” value (MADB 106 tumor cells [1]; s.c. slow-release emulsion given along with MADB 106 cell inoculation) did it give?
Answer: increasing LTR levels

Question: How did the “number of lung surface metastases, GLA vs SE” value (MADB 106 tumor cells [2]; p<0.01) turn out when glucopyranosyl lipid adjuvant [GLA] was run?
Answer: significant difference

Question: And the “number of lung surface metastases, GLA vs PBS” value (MADB 106 tumor cells [2]; p<0.05)?
Answer: significant difference

Question: And the “MADB 106 LTR, GLA vs PBS (time course)” value (MADB 106 tumor cells [1]; female rats, 2 μg GLA s.c. 24 h before inoculation, p<0.05)?
Answer: significant difference

Question: What about the “MADB 106 LTR, GLA vs PBS (time course)” value (MADB 106 tumor cells [1]; female rats, 2 μg GLA s.c. 48 h before inoculation, p<0.05) of the same molecule?
Answer: significant difference

Question: And the “MADB 106 LTR, GLA vs PBS (time course)” value (MADB 106 tumor cells [1]; male rats, 2 μg GLA s.c. 4 h before inoculation, p<0.05)?
Answer: significant difference

Question: And the “MADB 106 LTR, GLA vs PBS (time course)” value (MADB 106 tumor cells [1]; male rats, 2 μg GLA s.c. 12 h before inoculation, p<0.0001)?
Answer: significant difference

Question: What about the “MADB 106 LTR, GLA vs PBS (time course)” value (MADB 106 tumor cells [1]; male rats, 2 μg GLA s.c. 24 h before inoculation, p<0.0001) of the same molecule?
Answer: significant difference

Question: And the “MADB 106 LTR, GLA vs PBS (time course)” value (MADB 106 tumor cells [1]; male rats, 2 μg GLA s.c. 48 h before inoculation, p<0.0001)?
Answer: significant difference

Question: And the “MADB 106 LTR in NK-depleted animals” value (MADB 106 tumor cells [1]; male rats, NK depletion by anti-NKR-P1 mAb, 2 μg GLA or SE s.c. 24 h before inoculation)?
Answer: no effect

Question: What about the “MADB 106 LTR, additive effect of GLA over SE” value (“MADB 106 LTR … over SE” for short) (MADB 106 tumor cells [1]; male rats, epinephrine groups, 0.7 μg/animal s.c. 24 h before inoculation, p<0.05) of the same molecule?
Answer: significant improvements

Question: What about the “MADB 106 LTR … over SE” value (MADB 106 tumor cells [1]; male rats, epinephrine groups, 2.5 μg/animal s.c. 24 h before inoculation, p<0.01) of the same molecule?
Answer: significant improvements

Question: What about the “MADB 106 LTR … over SE” value (MADB 106 tumor cells [1]; male rats, epinephrine groups, 10 μg/animal s.c. 24 h before inoculation, p<0.01) of the same molecule?
Answer: significant improvements

Question: And the “MADB 106 LTR … over SE” value (MADB 106 tumor cells [1]; male rats, epinephrine groups, 20 μg/animal s.c. 24 h before inoculation, p<0.001)?
Answer: significant improvements

Question: What about the “reduction of the epinephrine effect on LTR, relation to dosage” value (MADB 106 tumor cells [1]; male rats, epinephrine groups, 0.3-20 μg/animal) of the same molecule?
Answer: positively correlated with its dosage

Question: And the “MADB 106 LTR, GLA over PBS” value (MADB 106 tumor cells [1]; male rats, epinephrine groups, all GLA doses (0.3-20 μg/animal) s.c. 24 h before tumor inoculation, p<0.0001)?
Answer: significant improvement

Question: What about the “MADB 106 LTR, GLA vs PBS, no-depletion condition” value (MADB 106 tumor cells [1]; male rats, no NK depletion, 2 μg GLA s.c. 24 h before inoculation, p<0.01) of the same molecule?
Answer: significant difference

Question: And the “dosage giving an additive effect for GLA over SE effects on LTR” value (MADB 106 tumor cells [1]; male rats, s.c. 24 h before inoculation)?
Answer: ≥ 0.7 μg per animal

Question: What about the “MADB 106 LTR, GLA over PBS” value (MADB 106 tumor cells [1]; male rats, vehicle (no epinephrine) groups, 0.7 μg/animal s.c. 24 h before inoculation, p<0.05) of the same molecule?
Answer: significant improvement

Question: What about the “MADB 106 LTR, GLA over PBS” value (MADB 106 tumor cells [1]; male rats, vehicle (no epinephrine) groups, 2.5 μg/animal s.c. 24 h before inoculation, p<0.01) of the same molecule?
Answer: significant improvement

Question: And the “MADB 106 LTR, GLA over PBS” value (MADB 106 tumor cells [1]; male rats, vehicle (no epinephrine) groups, 10 μg/animal s.c. 24 h before inoculation, p<0.05)?
Answer: significant improvement

Question: What about the “MADB 106 LTR, GLA over PBS” value (MADB 106 tumor cells [1]; male rats, vehicle (no epinephrine) groups, 20 μg/animal s.c. 24 h before inoculation, p<0.01) of the same molecule?
Answer: significant improvement
